Laboratory results: patent publication US9914730B2, “Azaquinazoline inhibitors of Atypical protein Kinase C” (Ignyta, Inc., priority 2012, dated 2018)

Molecular target: T1, full-length human PKCι (Homo sapiens, UniProt P41743)
T1 construct: Recombinant, full-length human PKCι expressed in Sf21 insect cells is also commercially available; purchased; host or cells: Sf21 insect cells
T1 sequence (P41743 1-596): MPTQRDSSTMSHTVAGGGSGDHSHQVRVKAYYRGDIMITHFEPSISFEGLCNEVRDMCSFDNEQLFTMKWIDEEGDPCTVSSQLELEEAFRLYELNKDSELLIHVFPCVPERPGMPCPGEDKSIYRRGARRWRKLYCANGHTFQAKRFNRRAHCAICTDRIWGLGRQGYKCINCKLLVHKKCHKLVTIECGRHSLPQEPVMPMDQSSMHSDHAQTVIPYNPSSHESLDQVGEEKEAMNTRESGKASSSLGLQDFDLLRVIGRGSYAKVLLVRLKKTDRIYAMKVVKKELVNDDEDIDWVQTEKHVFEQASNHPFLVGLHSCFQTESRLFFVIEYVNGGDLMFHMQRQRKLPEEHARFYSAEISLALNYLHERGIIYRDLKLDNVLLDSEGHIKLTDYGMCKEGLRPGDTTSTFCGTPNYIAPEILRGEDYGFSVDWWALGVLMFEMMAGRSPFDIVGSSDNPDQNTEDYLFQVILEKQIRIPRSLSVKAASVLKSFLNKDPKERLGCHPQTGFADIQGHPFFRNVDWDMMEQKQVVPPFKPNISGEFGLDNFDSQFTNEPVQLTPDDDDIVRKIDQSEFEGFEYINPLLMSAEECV
Experiment: PKCι IC50 IMAP assay, full-length PKCι at 150 μM ATP
Format: biochemical
Conditions: read-out: IC50 in IMAP assay against full length PKCi at 150 μM ATP
Method in brief: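 Compounds in 4% final DMSO are mixed with Sf21-derived full-length human PKCι (typically 15 pM) and 100 nM FAM-labelled pseudosubstrate peptide, then started with 150 μM ATP. Reaction runs 60 min at room temperature, is quenched with IMAP development reagent for 2 h, and fluorescence polarisation is measured to derive IC50.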

Structure (SMILES)	IC50
Fc1cnc(Nc2cc(-c3nc(N4CCNCC4)c4c(C5CC5)cncc4n3)ccn2)c(F)c1 [Example 704, [4-(5-Cyclopropyl-4-piperazin-1-yl-pyrido[3,4-d]pyrimidin-2-yl)-pyridin-2-yl]-(3,5-difluoro-pyridin-2-yl)-amine]	< 100 nM
FC(F)(F)c1ccc(Nc2cc(-c3nc(N4CCNCC4)c4c(C5CC5)cncc4n3)ccn2)cc1 [Example 595, [4-(5-Cyclopropyl-4-piperazin-1-yl-pyrido[3,4-d]pyrimidin-2-yl)-pyridin-2-yl]-(4-trifluoromethyl-phenyl)-amine]	< 100 nM
Fc1cccc(F)c1Nc1cc(-c2nc(N3CCNCC3)c3c(C4CC4)cncc3n2)ccn1 [Example 264, [4-(5-Cyclopropyl-4-piperazin-1-yl-pyrido[3,4-d]pyrimidin-2-yl)-pyridin-2-yl]-(2,6-difluoro-phenyl)-amine]	< 100 nM
COc1ncccc1Nc1cc(-c2nc(N3CCNCC3)c3c(C4CC4)cncc3n2)ccn1 [Example 513, [4-(5-Cyclopropyl-4-piperazin-1-yl-pyrido[3,4-d]pyrimidin-2-yl)-pyridin-2-yl]-(2-methoxy-pyridin-3-yl)-amine]	< 100 nM
O=C(NCCF)C1CCN(c2nc(-c3ccnc(Nc4c(F)cccc4F)c3)nc3cncc(C4CC4)c23)CC1 [Example 658, 1-{5-Cyclopropyl-2-[2-(2,6-difluoro-phenylamino)-pyridin-4-yl]-pyrido[3,4-d]pyrimidin-4-yl}-piperidine-4-carboxylic acid (2-fluoro-ethyl)-amide]	1000 to 10000 nM
COc1ccc(F)c(Nc2cc(-c3nc(N4CCNCC4)c4c(C5CC5)cncc4n3)ccn2)c1 [Example 580, [4-(5-Cyclopropyl-4-piperazin-1-yl-pyrido[3,4-d]pyrimidin-2-yl)-pyridin-2-yl]-(2-fluoro-5-methoxy-phenyl)-amine]	< 100 nM
c1ccc(C2CN(c3nc(-c4ccncc4)nc4cnccc34)CCN2)cc1 (stereo not drawn) [Example 69, 3-phenyl-1-[2-(pyridin-4-yl)-pyrido[3,4-d]-pyrimidin-4-yl]-piperazine]	10000 to 40000 nM
OC[C@@H](Nc1cc(-c2nc(N3CCNCC3)c3c(C4CC4)cncc3n2)ccn1)c1ccccc1 [Example 2164, (S)-2-[4-(5-Cyclopropyl-4-piperazin-1-yl-pyrido[3,4-d]pyrimidin-2-yl)-pyridin-2-ylamino]-2-phenyl-ethanol]	< 100 nM
COc1cncc2nc(-c3ccncc3)nc(N3CC[C@H](N)C3)c12 [Example 53, (3S)-1-[5-methoxy-2-(pyridin-4-yl)-pyrido[3,4-d]-pyrimidin-4-yl]-pyrrolidin-3-amine]	100 to 1000 nM
FC(F)(F)c1cc2c(-c3nc(NC4CCNCC4(F)F)c4c(C5CC5)cncc4n3)ccnc2[nH]1 (stereo not drawn) [Example 2155, [5-Cyclopropyl-2-(2-trifluoromethyl-1H-pyrrolo[2,3-b]pyridin-4-yl)-pyrido[3,4-d]pyrimidin-4-yl]-(3,3-difluoro-piperidin-4-yl)-amine]	100 to 1000 nM
O[C@@H]1CN(c2nc(-c3ccnc(Nc4ccccc4)c3)nc3cncc(C4CC4)c23)CC[C@@H]1O (racemic) [Example 675, (+/−)-(cis)-1-[5-Cyclopropyl-2-(2-phenylamino-pyridin-4-yl)-pyrido[3,4-d]pyrimidin-4-yl]-piperidine-3,4-diol]	100 to 1000 nM
COc1cncc2nc(-c3ccnc(Nc4ccccc4)c3)nc(N3CCN[C@@H](CCO)C3)c12 [Example 225, 2-{(S)-4-[5-Methoxy-2-(2-phenylamino-pyridin-4-yl)-pyrido[3,4-d]pyrimidin-4-yl]-piperazin-2-yl}-ethanol]	100 to 1000 nM
Fc1cccc(F)c1Nc1cc(-c2nc(N3CCNCC3)c3c(C4CC4)cnc(F)c3n2)ccn1 [Example 2101, [4-(5-Cyclopropyl-8-fluoro-4-piperazin-1-yl-pyrido[3,4-d]pyrimidin-2-yl)-pyridin-2-yl]-(2,6-difluoro-phenyl)-amine]	< 100 nM
COc1cncc2nc(-c3ccnc(NC(=O)CN4CCOCC4)c3)nc(N3CCNCC3)c12 [Example 209, N-[4-(5-Methoxy-4-piperazin-1-yl-pyrido[3,4-d]pyrimidin-2-yl)-pyridin-2-yl]-2-morpholin-4-yl-acetamide]	100 to 1000 nM
COc1cncc2nc(-c3ccnc(Nc4ccc(C(F)(F)F)cn4)c3)nc(N3CCNCC3)c12 [Example 368, [4-(5-Methoxy-4-piperazin-1-yl-pyrido[3,4-d]pyrimidin-2-yl)-pyridin-2-yl]-(5-trifluoromethyl-pyridin-2-yl)-amine]	< 100 nM
N#Cc1ccc(Nc2cc(-c3nc(N4CCNCC4)c4c(Cl)cncc4n3)ccn2)cn1 [Example 260, 5-[4-(5-Chloro-4-piperazin-1-yl-pyrido[3,4-d]pyrimidin-2-yl)-pyridin-2-ylamino]-pyridine-2-carbonitrile]	10000 to 40000 nM
COc1ccccc1Nc1cc(-c2nc(N3CCNCC3)c3c(C4CC4)cncc3n2)ccn1 [Example 515, [4-(5-Cyclopropyl-4-piperazin-1-yl-pyrido[3,4-d]pyrimidin-2-yl)-pyridin-2-yl]-(2-methoxy-phenyl)-amine]	< 100 nM
NC(=O)C1CCN(c2nc(-c3ccnc(Nc4c(F)cccc4F)c3)nc3cncc(C4CC4)c23)CC1 [Example 656, 1-{5-Cyclopropyl-2-[2-(2,6-difluoro-phenylamino)-pyridin-4-yl]-pyrido[3,4-d]pyrimidin-4-yl}-piperidine-4-carboxylic acid amide]	100 to 1000 nM
Fc1cccc(F)c1Nc1cc(-c2nc(NC3CCNCC3)c3c(C4CC4)cncc3n2)ccn1 [Example 790, {5-Cyclopropyl-2-[2-(2,6-difluoro-phenylamino)-pyridin-4-yl]-pyrido[3,4-d]pyrimidin-4-yl}-piperidin-4-yl-amine]	< 100 nM
c1cc(-c2nc(N3CCNCC3)c3c(C4CC4)cncc3n2)cc(Nc2ccc3ccnn3c2)n1 [Example 563, [4-(5-Cyclopropyl-4-piperazin-1-yl-pyrido[3,4-d]pyrimidin-2-yl)-pyridin-2-yl]-pyrazolo[1,5-a]pyridin-6-yl-amine]	< 100 nM

Second part, the compound after the results:

IC50	Structure (SMILES)
< 100 nM	Fc1ccc(Nc2cc(-c3nc(N4CCNCC4)c4c(C5CC5)cncc4n3)ccn2)nc1 [Example 271, [4-(5-Cyclopropyl-4-piperazin-1-yl-pyrido[3,4-d]pyrimidin-2-yl)-pyridin-2-yl]-(5-fluoro-pyridin-2-yl)-amine]
< 100 nM	CNc1cc(-c2nc(N3CCNCC3)c3c(C4CC4)cncc3n2)ccn1 [Example 630, [4-(5-Cyclopropyl-4-piperazin-1-yl-pyrido[3,4-d]pyrimidin-2-yl)-pyridin-2-yl]-methyl-amine]
< 100 nM	[2H]C([2H])([2H])c1cc2c(-c3nc(N4CCNCC4)c4c(C5CC5)cncc4n3)ccnc2[nH]1 [Example 1228, 5-Cyclopropyl-4-piperazin-1-yl-2-(2-triduteriomethyl-1H-pyrrolo[2,3-b]pyridin-4-yl)-pyrido[3,4-d]pyrimidine]
< 100 nM	Clc1cc2c(-c3nc(N4CCNCC4)c4c(C5CC5)cncc4n3)ccnc2[nH]1 [Example 2074, 2-(2-Chloro-1H-pyrrolo[2,3-b]pyridin-4-yl)-5-cyclopropyl-4-piperazin-1-yl-pyrido[3,4-d]pyrimidine]
< 100 nM	Fc1cnc(F)c(Nc2cc(-c3nc(N4CCNCC4)c4c(C5CC5)cncc4n3)ccn2)c1 [Example 749, [4-(5-Cyclopropyl-4-piperazin-1-yl-pyrido[3,4-d]pyrimidin-2-yl)-pyridin-2-yl]-(2,5-difluoro-pyridin-3-yl)-amine]
< 100 nM	c1cc(-c2nc(N3CCNCC3)c3c(C4CCC4)cncc3n2)c2cc(C3CCOC3)[nH]c2n1 (stereo not drawn) [Example 2184, 5-Cyclobutyl-4-piperazin-1-yl-2-[2-(tetrahydro-furan-3-yl)-1H-pyrrolo[2,3-b]pyridin-4-yl]-pyrido[3,4-d]pyrimidine]
< 100 nM	Clc1ccccc1-c1cc2c(-c3nc(N4CCNCC4)c4c(C5CCC5)cncc4n3)ccnc2[nH]1 [Example 2204, 2-[2-(2-Chloro-phenyl)-1H-pyrrolo[2,3-b]pyridin-4-yl]-5-cyclobutyl-4-piperazin-1-yl-pyrido[3,4-d]pyrimidine]
< 100 nM	Fc1ccc(Nc2cc(-c3nc(N4CCNCC4)c4c(C5CC5)cncc4n3)c(F)cn2)cc1 [Example 765, [4-(5-Cyclopropyl-4-piperazin-1-yl-pyrido[3,4-d]pyrimidin-2-yl)-5-fluoro-pyridin-2-yl]-(4-fluoro-phenyl)-amine]
< 100 nM	Fc1cccnc1Nc1cc(-c2nc(N3CCNCC3)c3c(C4CC4)cncc3n2)ccn1 [Example 526, [4-(5-Cyclopropyl-4-piperazin-1-yl-pyrido[3,4-d]pyrimidin-2-yl)-pyridin-2-yl]-(3-fluoro-pyridin-2-yl)-amine]
100 to 1000 nM	Fc1cncc(Nc2cc(-c3nc(N4CCNCC4)c4c(C5CC5)cncc4n3)ccn2)c1 [Example 535, [4-(5-Cyclopropyl-4-piperazin-1-yl-pyrido[3,4-d]pyrimidin-2-yl)-pyridin-2-yl]-(5-fluoro-pyridin-3-yl)-amine]
